From US20100227859A1, “TRICYCLIC COMPOUNDS AS MATRIX METALLOPROTEINASE INHIBITORS” (priority 2007, published 2010)

Each compound was assayed against purified human MMP-12 enzyme (Homo sapiens, UniProt P39900) (assay: MMP-12 FRET assay). Conditions: substrate 20 μM, room temperature.
Sequence of purified human MMP-12 enzyme (P39900 106-470): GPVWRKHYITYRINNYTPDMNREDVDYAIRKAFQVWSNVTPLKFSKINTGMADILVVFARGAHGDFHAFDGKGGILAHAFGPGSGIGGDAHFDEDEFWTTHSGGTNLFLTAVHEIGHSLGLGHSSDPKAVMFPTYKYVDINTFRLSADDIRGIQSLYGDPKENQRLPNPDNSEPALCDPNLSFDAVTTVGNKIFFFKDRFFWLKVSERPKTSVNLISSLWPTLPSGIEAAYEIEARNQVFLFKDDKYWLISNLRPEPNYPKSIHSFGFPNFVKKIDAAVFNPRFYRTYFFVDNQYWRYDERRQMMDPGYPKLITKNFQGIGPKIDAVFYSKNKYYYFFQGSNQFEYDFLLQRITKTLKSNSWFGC
Type: biochemical
Method: Compounds according to the present teachings were tested in an MMP-12 FRET assay as follows. To each well of black polystyrene 96-well plate was added assay buffer (50 mM HEPES (pH 7.4), 100 mM NaCl, 5 mM CaCl2 and 0.005% Brij-35 (Polyoxyethyleneglycol dodecyl ether, Pierce cat#20150), purified human MMP-12 enzyme, and varied concentrations of test compounds (prepared by serial dilution of a stock solution in 100% DMSO). The plates were incubated at room temperature for 30 minutes. The enzymatic reactions were initiated by addition of a substrate, MCA-Pro-Leu-Gly-Leu-Dpa(DNP)-Ala-Arg, containing a fluorescent group (7-methoxycoumarin, MCA) and a 2,4-dinitrophenyl group (DNP), to a final concentration of 20 μM. The final DMSO concentration in the assay was 10%. The reaction was monitored for 30 minutes at room temperature and the initial rate of the cleavage reaction was determined using a fluorescence plate reader (λex: 325 nm, λem: 395 nm). Plots of the inhibitor concentration vs. the initial cleavage rate were fit to the following equation: y=Vmax*(1−(x^n/(K^n+x^n))), whereby x=inhibitor concentration, y=initial rate, Vmax=initial rate in the absence of inhibitor, n=slope factor, and K=IC50 for the inhibition curve.
`CCCn1cc(-c2ccc3sc4cc(S(=O)(=O)N[C@H](C(=O)O)C(C)C)ccc4c3c2)cn1` [Compound 42, (S)-3-methyl-2-(8-(1-propyl-1H-pyrazol-4-yl)dibenzo[b,d]thiophene-3-sulfonamido)butanoic acid] was tested, and the IC50 was 7.8 nM. `CC(C)CCn1cc(-c2ccc3sc4cc(S(=O)(=O)N[C@H](C(=O)O)C(C)C)ccc4c3c2)cn1` [Compound 43, (S)-2-(8-(1-isopentyl-1H-pyrazol-4-yl)dibenzo[b,d]thiophene-3-sulfonamido)-3-methylbutanoic acid] was tested, and the IC50 was 88 nM. Compound `CC(C)[C@H](NS(=O)(=O)c1ccc2c(c1)sc1ccc(-c3cnn(Cc4ccccc4)c3)cc12)C(=O)O` [Compound 44, (S)-2-(8-(1-benzyl-1H-pyrazol-4-yl)dibenzo[b,d]thiophene-3-sulfonamido)-3-methylbutanoic acid] has an IC50 of 65 nM. `CC(C)[C@H](NS(=O)(=O)c1ccc2c(c1)sc1ccc(-c3cn[nH]c3)cc12)C(=O)O` [Compound 45, (S)-2-(8-(1H-pyrazol-4-yl)dibenzo[b,d]thiophene-3-sulfonamido)-3-methylbutanoic acid] gave an IC50 of 5.5 nM. `CC(C)[C@H](NS(=O)(=O)c1ccc2c(c1)sc1ccc(-c3cc4ccccc4s3)cc12)C(=O)O` [Compound 46, (S)-2-(8-(benzo[b]thiophen-2-yl)dibenzo[b,d]thiophene-3-sulfonamido)-3-methylbutanoic acid] gave an IC50 of 289 nM. `CC(=O)c1ccc(-c2ccc3sc4cc(S(=O)(=O)N[C@H](C(=O)O)C(C)C)ccc4c3c2)s1` [Compound 47, (S)-2-(8-(5-acetylthiophen-2-yl)dibenzo[b,d]thiophene-3-sulfonamido)-3-methylbutanoic acid] gave an IC50 of 2.9 nM. With `CC(C)[C@H](NS(=O)(=O)c1ccc2c(c1)oc1ccc(-c3occc3CN(C)C)cc12)C(=O)O` [Compound 48, (S)-2-(8-(3-((dimethylamino)methyl)furan-2-yl)dibenzo[b,d]furan-3-sulfonamido)-3-methylbutanoic acid] the IC50 was 118 nM. Compound `CC(C)[C@H](NS(=O)(=O)c1ccc2c(c1)oc1ccc(-c3sccc3CN(C)C)cc12)C(=O)O` [Compound 49, (S)-2-(8-(3-((dimethylamino)methyl)thiophen-2-yl)dibenzo[b,d]furan-3-sulfonamido)-3-methylbutanoic acid] has an IC50 of 228 nM. `CC(C)[C@H](NS(=O)(=O)c1ccc2c(c1)oc1ccc(-c3ccc(C(C)N(C)C)s3)cc12)C(=O)O` (stereo partly drawn) [Compound 50, (S)-2-(8-(5-(1-(dimethylamino)ethyl)thiophen-2-yl)dibenzo[b,d]furan-3-sulfonamido)-3-methylbutanoic acid] was tested, and the IC50 was 5.7 nM. `CC(C)[C@H](NS(=O)(=O)c1ccc2c(c1)sc1c(-c3ccsc3Cl)cccc12)C(=O)O` [Compound 51, (S)-2-(6-(2-chlorothiophen-3-yl)dibenzo[b,d]thiophene-3-sulfonamido)-3-methylbutanoic acid] was tested, and the IC50 was > 1000 nM. `CC(C)[C@H](NS(=O)(=O)c1ccc2c(c1)sc1ccc(-c3ccsc3Cl)cc12)C(=O)O` [Compound 52, (S)-2-(8-(2-chlorothiophen-3-yl)dibenzo[b,d]thiophene-3-sulfonamido)-3-methylbutanoic acid] showed an IC50 of 19 nM. Compound `CC(C)[C@H](NS(=O)(=O)c1ccc2c(c1)sc1ccc(-c3ccco3)cc12)C(=O)O` [Compound 53, (S)-2-(8-(furan-2-yl)dibenzo[b,d]thiophene-3-sulfonamido)-3-methylbutanoic acid] has an IC50 of 43 nM. `CC(C)[C@H](NS(=O)(=O)c1ccc2c(c1)sc1ccc(-c3ccc(-c4ccc(-c5ccc(Cl)nc5)nc4)nc3)cc12)C(=O)O` [Compound 54, (S)-2-[8-(6″-Chloro-[2,3′;6′,3″]terpyridin-5-yl)-dibenzothiophene-3-sulfonylamino]-3-methyl-butanoic acid] gave an IC50 of 483 nM. In the case of `COc1ccc(-c2ccc3sc4cc(S(=O)(=O)N[C@H](C(=O)O)C(C)C)ccc4c3c2)cn1` [Compound 55, (S)-2-(8-(6-methoxypyridin-3-yl)dibenzo[b,d]thiophene-3-sulfonamido)-3-methylbutanoic acid], the IC50 is reported as 65 nM. In the case of `CC(C)[C@H](NS(=O)(=O)c1ccc2c(c1)sc1ccc(-c3ccncc3)cc12)C(=O)O` [Compound 56, (S)-3-methyl-2-(8-(pyridin-4-yl)dibenzo[b,d]thiophene-3-sulfonamido)butanoic acid], the IC50 is reported as 8.4 nM. `CC(C)[C@H](NS(=O)(=O)c1ccc2c(c1)sc1ccc(-c3ccc[nH]3)cc12)C(=O)O` [Compound 57, (S)-2-(8-(1H-pyrrol-2-yl)dibenzo[b,d]thiophene-3-sulfonamido)-3-methylbutanoic acid] gave an IC50 of 21 nM. `CC(C)[C@H](NS(=O)(=O)c1ccc2c(c1)sc1ccc(/C=C/C3CCCCC3)cc12)C(=O)O` [Compound 58, (S,E)-2-(8-(2-cyclohexylvinyl)dibenzo[b,d]thiophene-3-sulfonamido)-3-methylbutanoic acid] gave an IC50 of 18 nM. `CC(C)[C@H](NS(=O)(=O)c1ccc2c(c1)oc1ccc(-c3ccc(-c4ccc(Cl)nc4)nc3)cc12)C(=O)O` [Compound 59, (S)-2-(8-(6′-chloro-2,3′-bipyridin-5-yl)dibenzo[b,d]furan-3-sulfonamido)-3-methylbutanoic acid] was tested, and the IC50 was < 1.5 nM. `CC(C)[C@H](NS(=O)(=O)c1ccc2c(c1)sc1cc(-c3ccoc3)ccc12)C(=O)O` [Compound 60, (S)-2-(7-(furan-3-yl)dibenzo[b,d]thiophene-3-sulfonamido)-3-methylbutanoic acid] was tested, and the IC50 was < 1.5 nM. For `CC(C)[C@H](NS(=O)(=O)c1ccc2c(c1)sc1ccc(-c3ccc(-c4ccc(Cl)nc4)nc3)cc12)C(=O)O` [Compound 61, (S)-2-(8-(6′-chloro-2,3′-bipyridin-5-yl)dibenzo[b,d]thiophene-3-sulfonamido)-3-methylbutanoic acid], the IC50 was 276 nM. `Cc1csc(-c2ccc3sc4cc(S(=O)(=O)N[C@H](C(=O)O)C(C)C)ccc4c3c2)c1` [Compound 62, (S)-3-methyl-2-(8-(4-methylthiophen-2-yl)dibenzo[b,d]thiophene-3-sulfonamido)butanoic acid] was tested, and the IC50 was 44 nM. Work on `CC(C)[C@H](NS(=O)(=O)c1ccc2c(c1)sc1ccc(-c3ccc(Cl)nc3)cc12)C(=O)O` [Compound 63, (S)-2-(8-(6-chloropyridin-3-yl)dibenzo[b,d]thiophene-3-sulfonamido)-3-methylbutanoic acid] yielded an IC50 of 33 nM. With `CC(C)[C@H](NS(=O)(=O)c1ccc2c(c1)oc1ccc(-c3ccc(Cl)nc3)cc12)C(=O)O` [Compound 64, (S)-2-(8-(6-chloropyridin-3-yl)dibenzo[b,d]furan-3-sulfonamido)-3-methylbutanoic acid] the IC50 was < 1.5 nM. Work on `COCC#Cc1ccc2c(c1)sc1cc(S(=O)(=O)N[C@H](C(=O)O)C(C)C)ccc12` [Compound 65, (S)-2-(7-(3-methoxyprop-1-ynyl)dibenzo[b,d]thiophene-3-sulfonamido)-3-methylbutanoic acid] yielded an IC50 of 4.6 nM. With `C/C=C/c1ccc2oc3cc(S(=O)(=O)N[C@H](C(=O)O)C(C)C)ccc3c2c1` [Compound 66, (S,E)-3-methyl-2-(8-(prop-1-enyl)dibenzo[b,d]furan-3-sulfonamido)butanoic acid] the IC50 was < 1.5 nM. For `C/C=C\c1ccc2oc3cc(S(=O)(=O)N[C@H](C(=O)O)C(C)C)ccc3c2c1` [Compound 67, (S,Z)-3-methyl-2-(8-(prop-1-enyl)dibenzo[b,d]furan-3-sulfonamido)butanoic acid], the IC50 was < 1.5 nM.
